In patent US20250353891A1 (MEDIMMUNE LIMITED, priority 2022, published 2025):
Starred links: 1 amine or outer side, 2 acyl side, 3 side chain; linkers in the order of their positions; H or OH if unused. Non-standard residues stand in square brackets, D forms with d. Residues, ends and D or L forms follow the SMILES beside them. Groups on a side chain read outwards from the residue. *: point of attachment. γGlu = O=C(O)[C@H](CCC(=O)[*:2])N[*:1]; Stearoyl = CCCCCCCCCCCCCCCCCC(=O)*; Palmitoyl = CCCCCCCCCCCCCCCC(=O)*; αMeF = C[C@](N)(Cc1ccccc1)C(=O)O; PEG2 = NCCOCCOCCC(=O)O; Aib = CC(C)(N)C(=O)O

Tests used:
[1] = biological target: human GLP-1 receptor (hGLP-1R) (Homo sapiens, UniProt P43220); assay: cAMP production (HTRF) in CHO cells expressing hGLP-1R; type: cell-based; design: expressed in transfected cells; conditions: for EC50: Table 6, peptides modified at position 17, cAMP in CHO hGLP-1R cells, geometric mean, read-out: hGLP-1R EC50; for % Relative Potency Ratio: Table 6, % GLP-1R activity relative to GLP-1 / % GlucR activity relative to glucagon
How it was run: (§1)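 Potency values represent EC50 from 4-parameter logistic curves of HTRF % Delta F signal. Receptor-expressing CHO cells (hGCGR 2×10^5 cells/mL, hGLP-1R 1×10^5 cells/mL) were exposed for 30 min at room temperature before two-step cAMP detection.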

[2] = biological target: human glucagon receptor (hGCGR) (Homo sapiens, UniProt P47871); assay: cAMP production (HTRF) in CHO cells expressing hGCGR; type: cell-based; design: expressed in transfected cells; conditions: Table 6, peptides modified at position 17; cAMP in CHO hGCGR cells; geometric mean; read-out: hGluc-R EC50
How it was run: as §1

human GLP-1 receptor (hGLP-1R), sequence (P43220 24-463): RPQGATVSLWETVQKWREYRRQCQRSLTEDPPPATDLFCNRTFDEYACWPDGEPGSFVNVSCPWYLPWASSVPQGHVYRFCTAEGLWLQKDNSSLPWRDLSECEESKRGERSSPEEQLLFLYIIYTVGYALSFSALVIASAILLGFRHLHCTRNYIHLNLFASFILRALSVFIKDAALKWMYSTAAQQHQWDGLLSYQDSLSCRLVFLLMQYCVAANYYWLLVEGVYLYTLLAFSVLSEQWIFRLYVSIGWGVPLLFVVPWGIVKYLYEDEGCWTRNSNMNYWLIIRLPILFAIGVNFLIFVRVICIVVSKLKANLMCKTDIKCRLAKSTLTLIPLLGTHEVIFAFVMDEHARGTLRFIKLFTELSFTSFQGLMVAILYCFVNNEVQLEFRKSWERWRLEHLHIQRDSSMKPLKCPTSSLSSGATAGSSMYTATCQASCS
human glucagon receptor (hGCGR), sequence (P47871 26-477): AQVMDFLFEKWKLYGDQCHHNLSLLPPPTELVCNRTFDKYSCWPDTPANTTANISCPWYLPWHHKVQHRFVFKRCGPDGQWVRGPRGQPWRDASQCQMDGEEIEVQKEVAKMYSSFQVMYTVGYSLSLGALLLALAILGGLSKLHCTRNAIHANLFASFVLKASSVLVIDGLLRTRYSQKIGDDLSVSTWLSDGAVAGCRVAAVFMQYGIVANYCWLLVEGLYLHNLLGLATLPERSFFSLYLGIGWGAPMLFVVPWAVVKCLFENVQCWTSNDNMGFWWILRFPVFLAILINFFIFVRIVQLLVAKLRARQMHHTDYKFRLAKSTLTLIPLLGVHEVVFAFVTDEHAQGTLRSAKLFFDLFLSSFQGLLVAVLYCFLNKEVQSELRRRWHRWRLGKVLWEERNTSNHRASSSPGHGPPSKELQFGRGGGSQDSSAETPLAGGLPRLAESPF

EC50 [1]	% Relative Potency Ratio [1]	EC50 [2]	Structure (SMILES)
18.9 pM	293.5	2.8 nM	CCCCCCCCCCCCCCCC(=O)N[C@@H](CCC(=O)N[C@@H](CCC(=O)NCCOCCOCCC(=O)NCCOCCOCCC(=O)NCCCC[C@H](NC(=O)[C@H](CO)NC(=O)[C@H](CC(=O)O)NC(=O)[C@H](CC(C)C)NC(=O)[C@](C)(Cc1ccccc1)NC(=O)[C@H](CCCCN)NC(=O)[C@H](CO)NC(=O)[C@@H](NC(=O)[C@H](CC(=O)O)NC(=O)[C@H](CO)NC(=O)[C@@H](NC(=O)[C@](C)(Cc1ccccc1)NC(=O)[C@H](CO)NC(=O)CNC(=O)[C@H](CCC(N)=O)NC(=O)C(C)(C)NC(=O)[C@@H](N)Cc1c[nH]cn1)[C@@H](C)O)C(C)C)C(=O)N[C@@H](C)C(=O)N[C@@H](C)C(=O)N[C@@H](CCC(N)=O)C(=O)N[C@@H](CC(=O)O)C(=O)N[C@H](C(=O)N[C@H](C(=O)N[C@@H](CCC(N)=O)C(=O)N[C@H](C(=O)N[C@H](C(=O)N[C@@H](C)C(=O)N[C@@H](CC(N)=O)C(N)=O)[C@@H](C)CC)[C@@H](C)CC)C(C)C)[C@@H](C)CC)C(=O)O)C(=O)O [Peptide 75] (H-H[Aib]QGS[αMeF]TSDVSK[αMeF]LDSK([PEG2-PEG2-γGlu-γGlu-Palmitoyl])AAQDIVQIIAN-NH2; N-terminus assumed)
1.78 pM	378.6	0.34 nM	CCCCCCCCCCCCCCCCCC(=O)N[C@@H](CCC(=O)N[C@@H](CCC(=O)NCCOCCOCCC(=O)NCCOCCOCCC(=O)NCCCC[C@H](NC(=O)[C@H](CO)NC(=O)[C@H](CC(=O)O)NC(=O)[C@H](CC(C)C)NC(=O)[C@](C)(Cc1ccccc1)NC(=O)[C@H](CCCCN)NC(=O)[C@H](CO)NC(=O)[C@@H](NC(=O)[C@H](CC(=O)O)NC(=O)[C@H](CO)NC(=O)[C@@H](NC(=O)[C@](C)(Cc1ccccc1)NC(=O)[C@H](CO)NC(=O)CNC(=O)[C@H](CCC(N)=O)NC(=O)C(C)(C)NC(=O)[C@@H](N)Cc1c[nH]cn1)[C@@H](C)O)C(C)C)C(=O)N[C@@H](C)C(=O)N[C@@H](C)C(=O)N[C@@H](CCC(N)=O)C(=O)N[C@@H](CC(=O)O)C(=O)N[C@@](C)(Cc1ccccc1)C(=O)N[C@H](C(=O)N[C@@H](CCC(N)=O)C(=O)NC(C)(C)C(=O)N[C@H](C(=O)N[C@H](C(=O)N[C@@H](CCC(=O)O)C(=O)NCC(=O)NCC(N)=O)C(C)C)C(C)C)C(C)C)C(=O)O)C(=O)O [Peptide 76] (H-H[Aib]QGS[αMeF]TSDVSK[αMeF]LDSK([PEG2-PEG2-γGlu-γGlu-Stearoyl])AAQD[αMeF]VQ[Aib]VVEGG-NH2; N-terminus assumed)
8.68 pM	55.5	0.243 nM	CCCCCCCCCCCCCCCCCC(=O)N[C@@H](CCC(=O)N[C@@H](CCC(=O)NCCOCCOCCC(=O)NCCOCCOCCC(=O)NCCCC[C@H](NC(=O)[C@H](CO)NC(=O)[C@H](CC(=O)O)NC(=O)[C@H](CC(C)C)NC(=O)[C@](C)(Cc1ccccc1)NC(=O)[C@H](CCCCN)NC(=O)[C@H](CO)NC(=O)[C@@H](NC(=O)[C@H](CC(=O)O)NC(=O)[C@H](CO)NC(=O)[C@@H](NC(=O)[C@](C)(Cc1ccccc1)NC(=O)[C@H](CO)NC(=O)CNC(=O)[C@H](CCC(N)=O)NC(=O)C(C)(C)NC(=O)[C@@H](N)Cc1c[nH]cn1)[C@@H](C)O)C(C)C)C(=O)N[C@@H](C)C(=O)N[C@@H](C)C(=O)N[C@@H](CCC(N)=O)C(=O)N[C@@H](CC(=O)O)C(=O)N[C@@](C)(Cc1ccccc1)C(=O)N[C@H](C(=O)N[C@@H](CCC(N)=O)C(=O)NC(C)(C)C(=O)N[C@@H](CC(C)C)C(=O)N[C@H](C(=O)N[C@@H](CO)C(=O)NCC(N)=O)[C@@H](C)CC)C(C)C)C(=O)O)C(=O)O [Peptide 77] (H-H[Aib]QGS[αMeF]TSDVSK[αMeF]LDSK([PEG2-PEG2-γGlu-γGlu-Stearoyl])AAQD[αMeF]VQ[Aib]LISG-NH2; N-terminus assumed)
1.73 pM	12.2	0.0107 nM	CCCCCCCCCCCCCCCC(=O)N[C@@H](CCC(=O)N[C@@H](CCC(=O)NCCOCCOCCC(=O)NCCOCCOCCC(=O)NCCCC[C@H](NC(=O)[C@H](CO)NC(=O)[C@H](CC(=O)O)NC(=O)[C@H](CC(C)C)NC(=O)[C@](C)(Cc1ccccc1)NC(=O)[C@H](CCCCN)NC(=O)[C@H](CO)NC(=O)[C@@H](NC(=O)[C@H](CC(=O)O)NC(=O)[C@H](CO)NC(=O)[C@@H](NC(=O)[C@](C)(Cc1ccccc1)NC(=O)[C@H](CO)NC(=O)CNC(=O)[C@H](CCC(N)=O)NC(=O)[C@H](CO)NC(=O)[C@@H](N)Cc1c[nH]cn1)[C@@H](C)O)C(C)C)C(=O)N[C@@H](C)C(=O)N[C@@H](C)C(=O)N[C@@H](CCC(N)=O)C(=O)N[C@@H](CC(=O)O)C(=O)N[C@@](C)(Cc1ccccc1)C(=O)N[C@H](C(=O)N[C@@H](CCC(N)=O)C(=O)NC(C)(C)C(=O)N[C@@H](CC(C)C)C(=O)N[C@@H](CCC(=O)O)C(=O)N[C@@H](C)C(=O)NCC(=O)NCC(N)=O)C(C)C)C(=O)O)C(=O)O [Peptide 79] (H-HSQGS[αMeF]TSDVSK[αMeF]LDSK([PEG2-PEG2-γGlu-γGlu-Palmitoyl])AAQD[αMeF]VQ[Aib]LEAGG-NH2; N-terminus assumed)
1.19 pM	22.6	0.0135 nM	CCCCCCCCCCCCCCCCCC(=O)N[C@@H](CCC(=O)N[C@@H](CCC(=O)NCCOCCOCCC(=O)NCCOCCOCCC(=O)NCCCC[C@H](NC(=O)[C@H](CO)NC(=O)[C@H](CC(=O)O)NC(=O)[C@H](CC(C)C)NC(=O)[C@](C)(Cc1ccccc1)NC(=O)[C@H](CCCCN)NC(=O)[C@H](CO)NC(=O)[C@@H](NC(=O)[C@H](CC(=O)O)NC(=O)[C@H](CO)NC(=O)[C@@H](NC(=O)[C@](C)(Cc1ccccc1)NC(=O)[C@H](CO)NC(=O)CNC(=O)[C@H](CCC(N)=O)NC(=O)[C@H](CO)NC(=O)[C@@H](N)Cc1c[nH]cn1)[C@@H](C)O)C(C)C)C(=O)N[C@@H](C)C(=O)N[C@@H](C)C(=O)N[C@@H](CCC(N)=O)C(=O)N[C@@H](CC(=O)O)C(=O)N[C@@](C)(Cc1ccccc1)C(=O)N[C@H](C(=O)N[C@@H](CCC(=O)O)C(=O)NC(C)(C)C(=O)N[C@@H](CC(C)C)C(=O)N[C@@H](CCC(=O)O)C(=O)N[C@@H](C)C(=O)NCC(=O)NCC(N)=O)C(C)C)C(=O)O)C(=O)O [Peptide 81] (H-HSQGS[αMeF]TSDVSK[αMeF]LDSK([PEG2-PEG2-γGlu-γGlu-Stearoyl])AAQD[αMeF]VE[Aib]LEAGG-NH2; N-terminus assumed)
1.04 pM	29.6	0.0156 nM	CCCCCCCCCCCCCCCCCC(=O)N[C@@H](CCC(=O)N[C@@H](CCC(=O)NCCOCCOCCC(=O)NCCOCCOCCC(=O)NCCCC[C@H](NC(=O)[C@H](CO)NC(=O)[C@H](CC(=O)O)NC(=O)[C@H](CC(C)C)NC(=O)[C@](C)(Cc1ccccc1)NC(=O)[C@H](CCCCN)NC(=O)[C@H](CO)NC(=O)[C@@H](NC(=O)[C@H](CC(=O)O)NC(=O)[C@H](CO)NC(=O)[C@@H](NC(=O)[C@](C)(Cc1ccccc1)NC(=O)[C@H](CO)NC(=O)CNC(=O)[C@H](CCC(N)=O)NC(=O)[C@H](CO)NC(=O)[C@@H](N)Cc1c[nH]cn1)[C@@H](C)O)C(C)C)C(=O)N[C@@H](C)C(=O)N[C@@H](C)C(=O)N[C@@H](CCC(N)=O)C(=O)N[C@@H](CC(=O)O)C(=O)N[C@@](C)(Cc1ccccc1)C(=O)N[C@H](C(=O)N[C@@H](CCC(N)=O)C(=O)NC(C)(C)C(=O)N[C@H](C(=O)N[C@H](C(=O)N[C@@H](CC(N)=O)C(=O)N[C@H](C(N)=O)[C@@H](C)O)[C@@H](C)CC)[C@@H](C)CC)C(C)C)C(=O)O)C(=O)O [Peptide 83] (H-HSQGS[αMeF]TSDVSK[αMeF]LDSK([PEG2-PEG2-γGlu-γGlu-Stearoyl])AAQD[αMeF]VQ[Aib]IINT-NH2)
2.8 pM	31.7	0.0449 nM	CCCCCCCCCCCCCCCCCC(=O)N[C@@H](CCC(=O)N[C@@H](CCC(=O)NCCOCCOCCC(=O)NCCOCCOCCC(=O)NCCCC[C@H](NC(=O)[C@H](CO)NC(=O)[C@H](CC(=O)O)NC(=O)[C@H](CC(C)C)NC(=O)[C@](C)(Cc1ccccc1)NC(=O)[C@H](CCCCN)NC(=O)[C@H](CO)NC(=O)[C@@H](NC(=O)[C@H](CC(=O)O)NC(=O)[C@H](CO)NC(=O)[C@@H](NC(=O)[C@](C)(Cc1ccccc1)NC(=O)[C@H](CO)NC(=O)CNC(=O)[C@H](CCC(N)=O)NC(=O)[C@H](CO)NC(=O)[C@@H](N)Cc1c[nH]cn1)[C@@H](C)O)C(C)C)C(=O)N[C@@H](C)C(=O)N[C@@H](C)C(=O)N[C@@H](CCC(N)=O)C(=O)N[C@@H](CC(=O)O)C(=O)N[C@@](C)(Cc1ccccc1)C(=O)N[C@H](C(=O)N[C@@H](CCC(N)=O)C(=O)NC(C)(C)C(=O)N[C@@H](CC(C)C)C(=O)N[C@@H](CC(C)C)C(=O)N[C@@H](CC(N)=O)C(=O)N[C@H](C(N)=O)[C@@H](C)O)C(C)C)C(=O)O)C(=O)O [Peptide 84] (H-HSQGS[αMeF]TSDVSK[αMeF]LDSK([PEG2-PEG2-γGlu-γGlu-Stearoyl])AAQD[αMeF]VQ[Aib]LLNT-NH2)
